In patent US20240139185A1, “COMPOUNDS THAT PARTICIPATE IN COOPERATIVE BINDING AND USES THEREOF” (Revolution Medicines, Inc., priority 2018, published 2024) one finds Kd and EC50 data, which are given here for 21 molecules.

As usually defined, the EC50 is the concentration needed to bring the measured effect to its halfway point. A higher EC50 goes with weaker potency.

Where only a bound is given, the exact number is not on record here.

The target in one test is cyclophilin A (CYPA) (Homo sapiens, UniProt P62937). Briefly: CYPA-compound binary complex formation by SPR. The settings on record: read-out: CYPA Binding Affinity. The protocol: In order to determine the affinity of compounds of the invention for cyclophilin A (CYPA), we employed surface plasmon resonance binding analysis using the following reagents, instruments and protocol as supplied by the instrument manufacturer.
Reagents and Instrument • 1. Instrument: Biacore S200 (GE Healthcare Life Sciences) • 2. Running buffer: 1×HBS-P+ (1×HBS supplemented with 0.05% Tween20), pH7.4, and 2% DMSO. • 3. Ligand: CypA-Avi • 4. Analyte: Serial dilution of WDB compounds from 50 μM to 0 μM, 2-fold dilution, 10 points (10 mM stock concentration). • 5. Sensor kit: Biotin CAPture Kit (BR28-9202-34, GE Healthcare Life Sciences) • 6. Regeneration buffer: 1 volume of 1 M NaOH and 3 volumes of 8 M guanidine hydrochloride (supplied with CAPture Kit, BR28-9202-34, GE Healthcare Life Sciences)
Experimental Procedure • 1. Capture of CAPreagent: 2 μl/min for 60 seconds. • 2. Immobilization of ligand CypA: Use Fc1 as the reference cell; immobilize CypA at 4 μg/ml using 5 μl/min flowrate on Fc2 (60s), Fc3 (80s) and Fc4 (80s), respectively. • 3. Binding of analytes: Inject WDB compound dilutions sequentially at 50 μl/min for association of 60 seconds. And then let it dissociates in buffer at 50 μl/min for 60 seconds. • 4. Regeneration: 2 injections of regeneration buffer at 30 μl/min for 60 seconds to regenerate the chip surface. • 5. Solvent correction: Run solvent correction at beginning and the end of the run. If run more than 6 compounds, add additional solvent correction every 6 compounds. • 6. Data fitting with built-in Biacore Evaluation Software: Steady-state fitting.

Test [1] deals with T1, BRAF-GTP-KRAS-G12C complex (Homo sapiens, UniProt P01116+P62937, G12C).
T1 construct: 50 nM of His6-KRas G12C-GTP (1-169); 500 nM of tagless CypA (1-165)
In words: KRAS-BRAF complex disruption through competition with CYPA-compound by TR-FRET. The settings on record: biochemical BRAF-KRAS G12C-GTP disruption assay EC50, with CYPA. The protocol: In this example, TR-FRET was used to measure the compound-facilitated disruption of a KRAS-BRAF complex. A mixture of tagless Cyclophilin A, His6-KRAS G12C-GMP-PNP, and GST-BRAF RAS binding domain was added to a 384-well assay plate containing compounds of the invention and incubated for 3 hours. A mixture of Anti-His Eu-W1024 and anti-GST allophycocyanin was then added and the reaction was incubated for an additional 1.5 hours. TR-FRET signal was read on an EnVision microplate reader (Perkin Elmer, Ex 320 nm, Em 665/615 nm). Compounds that facilitate disruption of a KRAS_BRAF complex were identified as those eliciting a decrease in the TR-FRET ratio relative to DMSO control wells. To determine the presenter-dependence of the compound-mediated KRAS-BRAF complex disruption, Cyclophilin A was left out of the initial incubation (see Table 5). To determine G12C specificity of the compound-mediated KRAS-BRAF complex disruption, wild-type KRAS was used instead of G12C KRAS (see Table 5).
Reagents and Instrument • Tagless CYPA; 519 μM in PBS buffer, pH 7.4 • GST BRAF; 110 μM in PBS buffer, pH 7.4 • His6-KRASG12C-GMP-PNP; 50 μM in PBS buffer, pH 7.4 • His6-KRASWT-GMP-PNP; 40 μM in PBS buffer, pH 7.4 • Anti-His Eu-W1024 (LANCE® Eu-W1024; Perkin Elmer) • Anti-GST allophycocyanin (Anti-GST IgG conjugated to SureLight®-Allophycocyanin; Perkin Elmer; Product Number AD0059G) • Test compounds, 10 mM in 100% DMSO • EnVision (Perkin Elmer) • Combi MultiDrop liquid dispenser with 8-channel small volume cassette • 384-well ProxiPlate (black)
Experimental Protocol • 1. Use Mosquito to dispense 100 nL/well of compounds (varying concentration in […]) into 384-well black ProxiPlate to make assay-ready-plate (ARP). • 2. Make assay buffer containing 25 mM Hepes pH 7.3, 100 mM NaCl, 5 mM MgCl2, 0.05% BSA, and 0.002% Tween-20. • 3. Make PRE-MIX A: delivers final concentrations of 50 nM of His6-KRas G12C-GTP (1-169) and 500 nM of tagless CypA (1-165) in assay buffer. • a. For presenter dependence experiments, omit addition of tagless CypA • b. For G12C/wt specificity experiments, substitute His6-KRas WT-GTP (1-169) for His6-KRas G12C-GTP (1-169) • 4. Use MultiDrop Combi to dispense PRE-MIX A into ARP, 7 μl/well. Incubate 3 hr at room temperature. • 5. Make PRE-MIX B: delivers final concentrations of 10 nM of anti-His Eu-W1024 and 50 nM of anti-GST APC. • 6. Use MultiDrop Combi to dispense PRE-MIX B into ARP, 3 μl/well. Shake briefly on Combi and incubate 1.5 hr at room temperature. • 7. Read on EnVision (Ex: 320 nm; Em1: 615 nm; Em2: 665 nm). • 8. Data is processed using Dotmatics. Curves are fit using a 4-parameter non-linear fit to determine the EC50 value for formation of the ternary complex.
In general terms: Time-resolved FRET reads energy transfer from a long-lived donor to a nearby acceptor.

For the molecule `CC1CCn2cnc3ccc(cc32)-c2cc(O)cc(c2)CC(NC(=O)C(C(C)C)N(C)C(=O)C2CN(C(=O)CCl)C2)C(=O)N2CCCC(N2)C(=O)O1` (mixture of isomers) [Compound 140], the Kd on cyclophilin A (CYPA) was more than 15 µM. For the same molecule, in test [1], the half-maximal effective concentration (EC50) is 0.5 to 5 µM.

For `Cc1nc2ccc3cc2n1CC(O)COC(=O)C1CCCN(N1)C(=O)C(NC(=O)C(C(C)C)N(C)C(=O)C1CN(C(=O)CCl)C1)Cc1cc(O)cc-3c1` (mixture of isomers) [Compound 154], the Kd at cyclophilin A (CYPA) fell in the range of 5 to 15 µM. Also, in test [1], the half-maximal effective concentration (EC50) was 0.5 to 5 µM.

As to `CC1COC(=O)[C@@H]2CCCN(N2)C(=O)[C@@H](NC(=O)[C@H](C(C)C)N(C)C(=O)C2CN(C(=O)CCl)C2)Cc2cc(O)cc(c2)-c2ccc3c(C#N)cn(c3c2)C1` (single isomer, unassigned) [Compound 88], the Kd on cyclophilin A (CYPA) was more than 15 µM. In test [1], this molecule came in with a 50% effective concentration (EC50) of 0.5 to 5 µM.

In the case of `C=CC(=O)N1CCN([C@H](C(=O)N[C@H]2Cc3cc(O)cc(c3)-c3ccc4nccc(c4c3)OCCOC(=O)[C@@H]3CCCN(N3)C2=O)C(C)C)C1=O` [Compound 2, (2S)-2-(3-acryloyl-2-oxoimidazolidin-1-yl)-N-((6^3S,4S)-2^5-hydroxy-5,7-dioxo-6^1,6^2,6^3,6^4,6^5,6^6-hexahydro-8,11-dioxa-1(6,4)-quinolina-6(1,3)-pyridazina-2(1,3)-benzenacycloundecaphane-4-yl)-3-methylbutanamide], the Kd on cyclophilin A (CYPA) is not above 5 µM. The molecule further registered an EC50 in test [1] of more than 5 µM.

For `C=CC(=O)N1CCN([C@H](C(=O)N[C@H]2Cc3cncc(c3)-c3ccc4nc(CC)n(c4c3)CCCOC(=O)[C@@H]3CCCN(N3)C2=O)C(C)C)C1=O` [Compound 4, (2S)-2-(3-acryloyl-2-oxoimidazolidin-1-yl)-N-((6^3S,4S)-12-ethyl-5,7-dioxo-6^1,6^2,6^3,6^4,6^5,6^6-hexahydro-1^1H-8-oxa-1(6,1)-benzo[d]imidazola-6(1,3)-pyridazina-2(3,5)-pyridinacycloundecaphane-4-yl)-3-methylbutanamide], the Kd at cyclophilin A (CYPA) was 5 to 15 µM. Besides, the 50% effective concentration (EC50) in test [1] is more than 5 µM.

In the case of `C=CC(=O)N1CCN([C@H](C(=O)N[C@H]2Cc3cc(O)cc(c3)-c3ccc4ccn(c4c3)CCCOC(=O)[C@@H]3CCCN(N3)C2=O)C(C)C)C1=O` [Compound 93], the Kd at cyclophilin A (CYPA) was not above 5 µM. In test [1], this molecule came in with an EC50 of more than 5 µM.

As for `C=CC(=O)N1CCN(C(C(=O)NC2Cc3cc(O)cc(c3)-c3ccc4c(C#N)cn(c4c3)CCCOC(=O)C3CCCN(N3)C2=O)C(C)C)C1=O` (centres unmarked) [Compound 94], at cyclophilin A (CYPA), the Kd was not above 5 µM. The same molecule returned a concentration for a half-maximal effect (EC50) in test [1] of 0.5 to 5 µM.

For `C=CC(=O)N1CCN([C@H](C(=O)N[C@H]2Cc3cc(O)cc(c3)-c3ccc4c(CC#N)cn(c4c3)CCCOC(=O)[C@@H]3CCCN(N3)C2=O)C(C)C)C1=O` [Compound 96], the Kd on cyclophilin A (CYPA) was not above 5 µM. For the same molecule, in test [1], the concentration for a half-maximal effect (EC50) fell in the range of 0.5 to 5 µM.

For `CC(C)C(C(=O)NC1Cc2cc(O)cc(c2)-c2ccc3c(C#N)cn(c3c2)CC(C)(C)COC(=O)C2CCCN(N2)C1=O)N(C)C(=O)C1CN(C(=O)CCl)C1` (centres unmarked) [Compound 98], the Kd at cyclophilin A (CYPA) fell in the range of 5 to 15 µM. In addition, the 50% effective concentration (EC50) in test [1] was not above 0.5 µM.

`CC(C)C(C(=O)NC1Cc2cc(O)cc(c2)-c2ccc3c(C#N)cn(c3c2)CCCOC(=O)C2CCCN(N2)C1=O)N(C)C(=O)C1CN(C(=O)CCl)C1` (centres unmarked) [Compound 101]: on cyclophilin A (CYPA), the Kd was not above 5 µM. Besides, the concentration for a half-maximal effect (EC50) in test [1] fell in the range of 0.5 to 5 µM.

In the case of `C=CC(=O)N1CCN([C@H](C(=O)N[C@H]2Cc3cc(O)cc(c3)-c3ccc4nc(CC)n(c4c3)CCCOC(=O)[C@@H]3CCCN(N3)C2=O)C(C)C)C1=O` [Compound 141], the Kd at cyclophilin A (CYPA) is not above 5 µM. Also, in test [1], the EC50 is 0.5 to 5 µM.

As to `Cc1nc2ccc3cc2n1CC(C)(C)COC(=O)[C@@H]1CCCN(N1)C(=O)[C@@H](NC(=O)[C@H](C(C)C)N(C)C(=O)CN1CC=CC1=O)Cc1cc(O)cc-3c1` [Compound 144], the Kd on cyclophilin A (CYPA) lay within 5 to 15 µM. In test [1], this molecule came in with an EC50 of more than 5 µM.

As for `C=CC(=O)N1CC(C(=O)N(C)[C@H](C(=O)N[C@H]2Cc3cc(O)cc(c3)-c3ccc4nc(C)n(c4c3)CC(C)(C)COC(=O)[C@@H]3CCCN(N3)C2=O)C(C)C)C1` [Compound 145], at cyclophilin A (CYPA), the Kd fell in the range of 5 to 15 µM. In test [1], this molecule showed an EC50 of 0.5 to 5 µM.

Consider `Cc1nc2ccc3cc2n1CC(C)(C)COC(=O)[C@@H]1CCCN(N1)C(=O)[C@@H](NC(=O)[C@H](C(C)C)N1CCN(C(=O)CCl)CC1=O)Cc1cc(O)cc-3c1` [Compound 146], for which the Kd on cyclophilin A (CYPA) fell in the range of 5 to 15 µM. Also, in test [1], the EC50 is 0.5 to 5 µM.

On to `Cc1nc2ccc3cc2n1C[C@@H](C)COC(=O)[C@@H]1CCCN(N1)C(=O)[C@@H](NC(=O)[C@H](C(C)C)N(C)C(=O)C1CN(C(=O)CCl)C1)Cc1cc(O)cc-3c1` [Compound 148], for which the Kd on cyclophilin A (CYPA) is more than 15 µM. Further, in test [1], the half-maximal effective concentration (EC50) lay in the range of 0.5 to 5 µM.

On to `Cc1nc2ccc3cc2n1CC(C)(C)COC(=O)[C@@H]1CCCN(N1)C(=O)[C@@H](NC(=O)[C@H](C(C)C)N(C)C(=O)CNC(=O)CCl)Cc1cc(O)cc-3c1` [Compound 150], for which the Kd at cyclophilin A (CYPA) is 5 to 15 µM. In test [1], this molecule had a concentration for a half-maximal effect (EC50) of 0.5 to 5 µM.

Consider `CC1=C(C)C(=O)N(CC(=O)N(C)[C@H](C(=O)N[C@H]2Cc3cc(O)cc(c3)-c3ccc4ncn(c4c3)CCCOC(=O)[C@@H]3CCCN(N3)C2=O)C(C)C)C1=O` [Compound 153], for which the Kd at cyclophilin A (CYPA) is 5 to 15 µM. The EC50 in test [1] was more than 5 µM.

With `CC(C)[C@@H](C(=O)N[C@H]1Cc2cc(O)cc(c2)-c2ccc3nc(-c4ccccc4C#N)n(c3c2)CCCOC(=O)[C@@H]2CCCN(N2)C1=O)N(C)C(=O)C1CN(C(=O)CCl)C1` [Compound 167], the Kd at cyclophilin A (CYPA) is not above 5 µM. In test [1], this molecule registered an EC50 of 0.5 to 5 µM.

On to `COc1ccccc1-c1nc2ccc3cc2n1CCCOC(=O)[C@@H]1CCCN(N1)C(=O)[C@@H](NC(=O)[C@H](C(C)C)N(C)C(=O)C1CN(C(=O)CCl)C1)Cc1cc(O)cc-3c1` [Compound 168], for which the Kd on cyclophilin A (CYPA) is not above 5 µM. Also, the EC50 in test [1] is not above 0.5 µM.

On to `CC(C)[C@@H](C(=O)N[C@H]1Cc2cc(O)cc(c2)-c2ccc3nc(C4CCOCC4)n(c3c2)CCCOC(=O)[C@@H]2CCCN(N2)C1=O)N(C)C(=O)C1CN(C(=O)CCl)C1` [Compound 170], for which, on cyclophilin A (CYPA), the Kd was in the range of 5 to 15 µM. The molecule also displayed an EC50 in test [1] of 0.5 to 5 µM.

As to `CC(C)[C@@H](C(=O)N[C@H]1Cc2cc(O)cc(c2)-c2ccc3ncn(c3c2)CCCOC(=O)[C@@H]2CCCN(N2)C1=O)N(C)C(=O)C1CN(C(=O)CCl)C1` [Compound 234, 1-(2-chloroacetyl)-N-((2S)-1-(((6^3S,4S)-2^5-hydroxy-5,7-dioxo-6^1,6^2,6^3,6^4,6^5,6-hexahydro-1^1H-8-oxa-1(6,1)-benzo[d]imidazola-6(1,3)-pyridazina-2(1,3)-benzenacycloundecaphane-4-yl)amino)-3-methyl-1-oxobutan-2-yl)-N-methylazetidine-3-carboxamide], the Kd on cyclophilin A (CYPA) was not above 5 µM.
